Reference: US4489084A, “[1-(2-Oxazolyl) or -(2-thiazolyl) hydrazino]alkyl nitriles” (Abbott Laboratories, priority 1983, dated 1984)
Counter-ions that a name gives are not always drawn.

Columns and labels:
[1] = test system: carrageenin pleurisy (accumulation of exudate volume and leukocytes); experiment: carrageenin pleurisy assay (modification of Vinegar et al.); type: in vivo; settings: Dose 100 (unit not given); for % Inhibition, Volume exudates: exudate volume; for % Inhibition, Cells: leukocyte accumulation
Source text: The anti-inflammatory activity of these compounds was established by using a modification of the carrageenin pleurisy assay described by Vinegar et al. Proc. Soc. Exp. Biol. Med. 143:711 (1973).

[2] = test system: dermal Arthus reaction (Type III hypersensitivity); experiment: reverse passive Arthus assay (Carter and Krause); type: in vivo, rats (male Sprague-Dawley); settings: 100 mg/kg, oral, 30 min before intradermal AntiB.S.A.; lesion after 4 hours; 4 rats per group
Procedure: Proc. 35, 774 (1976). Each compound was administered orally to a group of four animals. The reserve passive Arthus reaction test in rats is conducted as follows: Male Sprague-Dawley rats weighing approximately 130-160 g. are used, 4 rats per group. All animals are injected intravenously with 0.5 ml. 0.075% Bovine Serum Albumin (B.S.A.) +2% Evans Blue solution. Each rat then receives an oral dose of drug; one drug is administered per group. Thirty minutes subsequent to drug dosing, each animal is injected intradermally with 0.05 ml. 1.44% AntiB.S.A. into the dorsal skin. Four hours later the animals are sacrificed, the dorsal skin reflexed, and the lesion excised. Two perpendicular diameters of each lesion are measured. The average diameters of the lesions from the treated groups are compared with the average diameters from the control group to determine any drug effect. […] Proc. 35, 774 (1976)]. Each compound was administered orally to a group of four animals.

| SMILES | % Inhibition, Volume exudates [1] [%] | % Inhibition, Cells [1] [%] | % Inhibition of lesion of dermal Arthus reaction [2] |
| --- | --- | --- | --- |
| CCCCC1C(=O)N(c2ccccc2)N(c2ccccc2)C1=O [Phenylbutazone, reference compound] | 59 | 13 | Inactive |
| Cl.N#CCCN(N)c1nc(-c2ccccc2)co1 [3-[1-(4-Phenyl-2-oxazolyl)-hydrazino]propanenitrile hydrochloride] | – | – | 59% |
| Cc1nc(N(N)CCC#N)oc1C.Cl [3-[1-(4,5-dimethyl-2-oxazolyl)-hydrazino]propanenitrile hydrochloride] | – | – | 38% |
| N#CCCN(N)c1nc(-c2ccccc2)c(-c2ccccc2)o1 [3-[1-(4,5-diphenyl-2-oxazolylhydrazino)]propanenitrile hydrochloride] | – | – | 40% |
| Cl.N#CCCN(N)c1ncco1 [3-[1-(2-Oxazolyl)hydrazino]propanenitrile hydrochloride] | 32 | 21 | 42% |
